Reference: paper PMC11272821, “Mechanistic safety assessment via multi-omic characterisation of systemic pathway perturbations following in vivo MAT2A inhibition” (Archives of Toxicology, 2024)

Tested on: rat liver proteome
Experiment: Liver label-free quantitative proteomics
Format: in vivo
Protocol: Liver tissue were homogenized in PreOmics iST buffer (PreOmics) using a bead ruptor. […] Peptides were purified using PreOmics iST cartridges and vacuum-centrifuged to dryness. Peptides were subsequently reconstituted in 2 vol% ACN and 0.1 vol% formic acid for single-run LC–MS analysis. Peptides were analyzed using a Thermo EASY-nLC1200 coupled online to an Exploris 480 Mass Spectrometer equipped with a Nanospray Flex Ion Source integrated with a column oven (PRSO-V1, Sonation) and a FAIMS unit. Peptides were separated using a nonlinear gradient and analyzed by acquiring spectra through Data Independent Acquisition (DIA). Data was analyzed using Spectronaut V15.7.2 (Biognosys AG) direct DIA analysis using an isoform Rat database (UniProt downloaded 22.02.2021) consisting of 9,746 protein entries utilizing the Pulsar search engine. Analysis settings were maintained to factory settings and identification was set to 1% false discovery rate (FDR) for precursor and protein level. Additional information is provided in Supplementary M&M.
Data analysis was performed using R Statistical Software (version 4.3.0). Proteomics, transcriptomics and metabolomics expression changes were visualised using heatmaps showing log2 fold change relative to control. In the heatmaps missing values were highlighted in grey.
Proteomics Analysis. Liver tissue was placed in vials containing 1.4 mm zirconia beads and taken up in 500 µL of PreOmics iST buffer (PreOmics). In a cold room set to 4 °C, tissues were homogenized utilizing a bead Ruptor 12 by shaking for 30 seconds for a total of 5 times using ‘high’ setting. Lysate was normalized using BCA assay (Thermo Fisher Scientific), and subsequently incubated at 95 °C for 10 min for reduction, and alkylation of proteins. A total of 50 μg from each sample was subjected to enzymatic cleavage for 3 h by adding equal amounts of endoproteinase Lys-C and trypsin (ThermoFisher Scientific, # A40009) in a 1:50 (wt/wt) enzyme:protein ratio. De-salting and purification were performed according to the PreOmics iST protocol on a styrene divinylbenzene reversed-phase sulfonate sorbent. Purified peptides were vacuum-centrifuged to dryness and reconstituted in double-distilled water with 2 vol% ACN and 0.1 vol% formic acid (FA) for single-run LC-MS analysis.
Peptides were loaded onto a ReproSil-Pur 120 C18AQ 1.9 µm in-house packed to a 5 µm tip 75u ID × 360u × 50 cm column using Thermo EASY-nLC 1200 coupled online to an Exploris 480 Mass Spectrometer equipped with a Nanospray Flex Ion Source integrated with a column oven (PRSO-V1, Sonation) maintained at 50 °C. Peptides were separated using a nonlinear gradient: Mobile phase A was 0.1 vol% FA and 3 vol% acetonitrile (ACN) in water, Mobile phase B was 90 vol% ACN and 0.1 vol % FA. The gradient was operated at 250 nL/min flowing 3 vol% B for 3 min, 3 to 5 vol% B over 3 min, 5 to 17 vol % B over 120 min, 17 to 24 vol % B over 26 min, 24 to 30 vol% B over 14 min, 30 to 85 vol% B over 3 min.

For `Cn1cc2cc(-c3cc4[nH]nc(C5CC5)c4n(-c4ccc(OC(F)F)cc4)c3=O)ccc2n1` [AZ’9567], the “Cfdp1 Log2FC” value (liver protein, 30mg/kg) was 0.5, the “Chid1 Log2FC” value (liver protein, 30mg/kg) was 1.0 and the “Comt Log2FC” value (liver protein, 30mg/kg) was -0.6. The “Coq4 Log2FC” value (liver protein, 30mg/kg) was 0.7, the “Csad Log2FC” value (liver protein, 30mg/kg) was -1.1 and the “Ctbs Log2FC” value (liver protein, 30mg/kg) was -0.7. For the same molecule, the “Cyp2c23 Log2FC” value (liver protein, 30mg/kg) was -0.9, the “Cyp4a2 Log2FC” value (liver protein, 30mg/kg) was 1.3 and the “Cyp4a10 Log2FC” value (liver protein, 30mg/kg) was 1.1. The “Dbnl Log2FC” value (liver protein, 30mg/kg) was 0.7, the “Dcakd Log2FC” value (liver protein, 30mg/kg) was 1.3 and the “Dkc1 Log2FC” value (liver protein, 30mg/kg) was 0.6. The “Dmgdh Log2FC” value (liver protein, 30mg/kg) was 0.7, the “Dohh Log2FC” value (liver protein, 30mg/kg) was 0.7 and the “Eif4ebp1 Log2FC” value (liver protein, 30mg/kg) was 1.0. For the same molecule, the “Enpep Log2FC” value (liver protein, 30mg/kg) was -1.2, the “Fabp4 Log2FC” value (liver protein, 30mg/kg) was 1.1 and the “Fabp5 Log2FC” value (liver protein, 30mg/kg) was -1.0. For the same molecule, the “Fads1 Log2FC” value (liver protein, 30mg/kg) was -1.6, the “Fasn Log2FC” value (liver protein, 30mg/kg) was -0.7 and the “Fdft1 Log2FC” value (liver protein, 30mg/kg) was 1.1. The “Fdps Log2FC” value (liver protein, 30mg/kg) was 0.5, the “Fgr Log2FC” value (liver protein, 30mg/kg) was 1.8 and the “Gimd1 Log2FC” value (liver protein, 30mg/kg) was -0.7. For the same molecule, the “Gmpr Log2FC” value (liver protein, 30mg/kg) was 0.8, the “Gnl3 Log2FC” value (liver protein, 30mg/kg) was 0.8 and the “Gnmt Log2FC” value (liver protein, 30mg/kg) was 1.7. For the same molecule, the “Gpcpd1 Log2FC” value (liver protein, 30mg/kg) was 1.8, the “Gstm1 Log2FC” value (liver protein, 30mg/kg) was -0.8 and the “Gstm2 Log2FC” value (liver protein, 30mg/kg) was -0.9. The “Gtpbp4 Log2FC” value (liver protein, 30mg/kg) was 0.8, the “Hexa Log2FC” value (liver protein, 30mg/kg) was -0.6 and the “Hfe Log2FC” value (liver protein, 30mg/kg) was 1.0. The “Hmgcs1 Log2FC” value (liver protein, 30mg/kg) was 1.6, the “Hmgn2 Log2FC” value (liver protein, 30mg/kg) was 1.2 and the “Hnrnpa1 Log2FC” value (liver protein, 30mg/kg) was 1.5. The “Hsd17b7 Log2FC” value (liver protein, 30mg/kg) was 0.6, the “Idi1 Log2FC” value (liver protein, 30mg/kg) was 1.3 and the “Igf1 Log2FC” value (liver protein, 30mg/kg) was -1.6. The “Kalrn Log2FC” value (liver protein, 30mg/kg) was 0.6, the “Lipa Log2FC” value (liver protein, 30mg/kg) was -0.5 and the “Lrrc8d Log2FC” value (liver protein, 30mg/kg) was 0.8. For the same molecule, the “Lyrm2 Log2FC” value (liver protein, 30mg/kg) was 0.7, the “Mat1a Log2FC” value (liver protein, 30mg/kg) was 0.6 and the “Mat2a Log2FC” value (liver protein, 30mg/kg) was 0.8. The “Mat2b Log2FC” value (liver protein, 30mg/kg) was -2.7, the “Me1 Log2FC” value (liver protein, 30mg/kg) was -1.0 and the “Mettl7b Log2FC” value (liver protein, 30mg/kg) was -1.0. The “Mettl26 Log2FC” value (liver protein, 30mg/kg) was -1.8, the “Minpp1 Log2FC” value (liver protein, 30mg/kg) was 1.5 and the “Mospd1 Log2FC” value (liver protein, 30mg/kg) was -0.7. For the same molecule, the “Mt1 Log2FC” value (liver protein, 30mg/kg) was 6.5, the “Mtr Log2FC” value (liver protein, 30mg/kg) was 1.1 and the “Mybbp1a Log2FC” value (liver protein, 30mg/kg) was 1.0. The “Ncl Log2FC” value (liver protein, 30mg/kg) was 0.8, the “Nob1 Log2FC” value (liver protein, 30mg/kg) was 0.9 and the “Orm1 Log2FC” value (liver protein, 30mg/kg) was 1.5. The “Paics Log2FC” value (liver protein, 30mg/kg) was 0.7, the “Pcyt1a Log2FC” value (liver protein, 30mg/kg) was 0.8 and the “Pklr.1 Log2FC” value (liver protein, 30mg/kg) was -1.1. The “Prmt1 Log2FC” value (liver protein, 30mg/kg) was 0.7, the “Pspc1 Log2FC” value (liver protein, 30mg/kg) was 0.7 and the “Ptprs Log2FC” value (liver protein, 30mg/kg) was -1.0. For the same molecule, the “Pum3 Log2FC” value (liver protein, 30mg/kg) was 1.0, the “Rbm3 Log2FC” value (liver protein, 30mg/kg) was 1.0 and the “Rgn Log2FC” value (liver protein, 30mg/kg) was -0.7. For the same molecule, the “Rmdn1 Log2FC” value (liver protein, 30mg/kg) was 0.8, the “S1pr1 Log2FC” value (liver protein, 30mg/kg) was -0.8 and the “Scd1 Log2FC” value (liver protein, 30mg/kg) was -3.2. For the same molecule, the “Sh3glb1 Log2FC” value (liver protein, 30mg/kg) was 0.8, the “Sirt2 Log2FC” value (liver protein, 30mg/kg) was 0.5 and the “Slc6a13 Log2FC” value (liver protein, 30mg/kg) was -1.0. For the same molecule, the “Slc22a8 Log2FC” value (liver protein, 30mg/kg) was -1.4, the “Slc39a4 Log2FC” value (liver protein, 30mg/kg) was -2.8 and the “Sqle Log2FC” value (liver protein, 30mg/kg) was 0.8. For the same molecule, the “Srebf1 Log2FC” value (liver protein, 30mg/kg) was 1.3, the “Sts Log2FC” value (liver protein, 30mg/kg) was -0.6 and the “Tat Log2FC” value (liver protein, 30mg/kg) was -1.6. For the same molecule, the “Tceanc2 Log2FC” value (liver protein, 30mg/kg) was 1.3, the “Thg1l Log2FC” value (liver protein, 30mg/kg) was 0.6 and the “Tpmt Log2FC” value (liver protein, 30mg/kg) was -1.4. For the same molecule, the “Tspo Log2FC” value (liver protein, 30mg/kg) was 1.9, the “Txnrd2 Log2FC” value (liver protein, 30mg/kg) was -0.6 and the “Ube2f Log2FC” value (liver protein, 30mg/kg) was 0.6. The “Ugt2b1 Log2FC” value (liver protein, 30mg/kg) was -1.1, the “Wdr45 Log2FC” value (liver protein, 30mg/kg) was -1.1 and the “Ythdc1 Log2FC” value (liver protein, 30mg/kg) was 0.5. For the same molecule, the “mvd Log2FC” value (liver protein, 30mg/kg) was 0.9 and the “differentially expressed liver proteins vs vehicle control” value (middle dose (10 mg/kg BID), adjusted p < 0.05 and Log2 FC > 0.5 or < −0.5) was 467.
